These results are taken from US10669227B2 (THE RESEARCH FOUNDATION OF STATE UNIVERSITY OF NEW YORK, priority 2009, dated 2020).

One series deals with MMP-13 (Collagenase-3) (Homo sapiens (Human), UniProt P45452). The series can be described thus: MMP-13 inhibition in vitro, octapeptide substrate, HPLC. As to conditions: for inhibition at 100 µM: read-out: MMP-13 Maximum Inhibition @100 μM; for MMP-13 Ratio (IC50 test compound/IC50 standard): standard 1,10-phenanthroline. The format is biochemical.
In series [1] the target is MMP-9 (human leukocyte gelatinase) (Homo sapiens (Human), UniProt P14780). The series can be described thus: MMP-9 inhibition in vitro, octapeptide substrate, HPLC. The format is biochemical. As to conditions: read-out: Maximum Inhibition At 100 μM compound (MMP-9). The text has this:
In contrast all three chemically-modified curcumins at 100 μm final concentration inhibited gelatinase activity by 68-100% (FIG. 6 and Table 6).

The next series concerns the target MMP-2 (Homo sapiens (Human), UniProt P08253). Description: MMP-2 inhibition in vitro, octapeptide substrate, HPLC. The format is biochemical. As to conditions: for inhibition at 100 µM: read-out: MMP-2 Maximum Inhibition @100 μM; for MMP-2 Ratio (IC50 test compound/IC50 standard): standard 1,10-phenanthroline.
Series [2] is described as follows: Solubility in aqueous solutions. The format is physicochemical. As to conditions: comparative.
The next series concerns TNF-α. The series can be described thus: Inhibition of TNF-α production by LPS-stimulated monocytes. The format is cell-based, human. As to conditions: Homo sapiens, Monocyte, 18 h, read-out: % Inhibition of TNF-α produced by stimulated Monocytes with LPS @ 18 h. On the procedure:
(§1) Briefly, human peripheral blood monocytes (HMs) were isolated from a leukocyte concentrate by density gradient centrifugation (Lymphoprep) and the isolated HMs cultured (2 h, 37° C.) to remove non-adherent cells. The adherent HMs wore cultured for 18 h (1×10^6 cells/well, 24-well plates)±endotoxin (LPS)±different compounds dissolved in DMSO (the final concentration of DMSO in the RPMI serum-free culture media with Pen./Strep. antibiotics was no greater than 0.5%). After incubation, the proinflammatory cytokines, TNFα, […], MCP-1 and IL-6 were measured in the conditioned media by ELISA and cytotoxicity was assessed by measuring the absorbance (490 nm) of formazan produced by reduction of MTS. The HMs alone±0.1-0.5% DMSO produced minimal levels of these pro-inflammatory cytokines. However, addition of 100 ng/ml or 10 μg/ml of LPS both dramatically stimulated cytokine production.
The cytokine levels were measured by Luminex multiplex, a method that allows the simultaneous measurement of different biological markers.

The next series deals with human monocytes. Description: Cytotoxicity in human monocytes (MTS). The series is classed as cell-based. On the procedure:
as §1, with “The adherent HMs wore cultured for 18 h (1×10^6 cells/well, 24-well plates)±endotoxin (LPS)±different compounds dissolved in DMSO (the final concentration of DMSO in the RPMI serum-free culture media with Pen./Strep. antibiotics was no greater than 0.5%).” left out

Bounds are passed on as bounds.

Chain of MMP-9 (human leukocyte gelatinase) (P14780 94-707): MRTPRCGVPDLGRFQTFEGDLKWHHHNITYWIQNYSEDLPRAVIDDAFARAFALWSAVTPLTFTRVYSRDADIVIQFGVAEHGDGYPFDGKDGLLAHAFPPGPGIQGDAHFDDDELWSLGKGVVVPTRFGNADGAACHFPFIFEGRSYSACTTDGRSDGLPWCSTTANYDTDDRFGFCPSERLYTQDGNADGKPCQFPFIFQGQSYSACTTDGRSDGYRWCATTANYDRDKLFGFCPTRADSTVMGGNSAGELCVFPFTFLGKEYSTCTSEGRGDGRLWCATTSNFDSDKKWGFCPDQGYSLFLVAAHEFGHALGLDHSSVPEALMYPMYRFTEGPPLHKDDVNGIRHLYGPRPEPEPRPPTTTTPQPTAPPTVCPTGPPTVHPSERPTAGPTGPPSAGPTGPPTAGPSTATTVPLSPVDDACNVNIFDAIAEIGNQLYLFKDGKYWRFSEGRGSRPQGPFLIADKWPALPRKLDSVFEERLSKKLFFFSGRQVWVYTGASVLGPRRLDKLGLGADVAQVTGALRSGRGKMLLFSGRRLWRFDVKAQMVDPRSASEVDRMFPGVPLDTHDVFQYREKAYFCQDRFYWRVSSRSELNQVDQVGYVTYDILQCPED
Chain of MMP-2 (P08253 110-660, species assumed): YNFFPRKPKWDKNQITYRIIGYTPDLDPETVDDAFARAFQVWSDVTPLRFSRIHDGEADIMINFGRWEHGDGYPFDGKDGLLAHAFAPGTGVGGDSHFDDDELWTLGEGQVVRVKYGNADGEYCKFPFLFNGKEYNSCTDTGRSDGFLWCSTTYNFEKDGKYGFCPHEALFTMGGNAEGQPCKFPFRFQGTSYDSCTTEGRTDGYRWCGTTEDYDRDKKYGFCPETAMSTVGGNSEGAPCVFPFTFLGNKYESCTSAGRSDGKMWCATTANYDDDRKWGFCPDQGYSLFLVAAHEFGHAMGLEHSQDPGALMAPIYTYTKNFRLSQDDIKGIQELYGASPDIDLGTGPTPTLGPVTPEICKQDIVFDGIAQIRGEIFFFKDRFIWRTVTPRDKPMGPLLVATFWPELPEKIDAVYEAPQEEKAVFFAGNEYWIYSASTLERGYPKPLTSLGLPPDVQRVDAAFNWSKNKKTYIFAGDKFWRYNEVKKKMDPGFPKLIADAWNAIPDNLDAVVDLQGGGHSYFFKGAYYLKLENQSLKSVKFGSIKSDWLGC

Broadly, the inhibition is the relative decrease from the control value, in per cent. On to `c1cnc2c(c1)ccc1cccnc12` [1,10-phenanthroline, 1,10-O-phenanthroline, reference compound], for which the inhibition at 100 µM is 100% at MMP-13 (Collagenase-3), 100% in series [1] and 60% on MMP-2. The “MMP-13 Ratio (IC50 test compound/IC50 standard)” value (“MMP-13 Ratio” for short) on MMP-13 (Collagenase-3) was 1.0. Moreover, the “MMP-2 Ratio (IC50 test compound/IC50 standard)” value (shortened to “MMP-2 Ratio”) on MMP-2 worked out at 1.0.
Regarding `COC(=O)C(C(=O)/C=C/c1ccccc1)C(=O)/C=C/c1ccccc1` [Compound 2], in series [2], the Solubility result is listed as “improved solubility”.
In the case of `COC(=O)C(C(=O)/C=C/c1ccc(O)cc1)C(=O)/C=C/c1ccc(O)cc1` [Compound 3, 1,7-Bis(4-hydroxyphenyl)-4-methoxycarbonylhepta-1E,6E-dien-3,5-dione], the inhibition at 100 µM was found to be 76% on MMP-13 (Collagenase-3), 68% in series [1] and 60% on MMP-2. Also, the “MMP-13 Ratio” value at MMP-13 (Collagenase-3) was 2.0. The Solubility result in series [2] is given as “more soluble in aqueous solutions than compound 1”. In addition, the “MMP-2 Ratio” value on MMP-2 came to 1.0.
On to `COc1cc(/C=C/C(=O)CC(=O)/C=C/c2ccc(N(C)C)cc2)ccc1O` [Compound 4], for which the inhibition at 100 µM at MMP-13 (Collagenase-3) came to 50%; in series [1], 100%; on MMP-2 it was 36%. Also, at MMP-13 (Collagenase-3), the “MMP-13 Ratio” value is 62.5. Besides, the “MMP-2 Ratio” value at MMP-2 was over 3.6.
Regarding `COc1cc(/C=C/C(=O)C(C(=O)/C=C/c2ccc(O)c(OC)c2)C(=O)Nc2ccccc2)ccc1O` [Compound 6, 1,7-Bis(4-hydroxy-3-methoxyphenyl)-4-N-phenylaminocarbonylhepta-1E,6E-dien-3,5-dione], the inhibition at 100 µM at MMP-13 (Collagenase-3) came to 100%; at MMP-2, 53%.
`O=C(/C=C/c1ccc(O)cc1)C(C(=O)/C=C/c1ccc(O)cc1)C(=O)Nc1ccccc1` [Compound 7, 1,7-Bis(4-hydroxyphenyl)-4-N-phenylaminocarbonylhepta-1E,6E-dien-3,5-dione]: on MMP-13 (Collagenase-3), the inhibition at 100 µM worked out at 77% and the “MMP-13 Ratio” value is under 0.3. Further, at MMP-2, the inhibition at 100 µM was found to be 45% and the “MMP-2 Ratio” value came out at 1.8.
Take `CN(C)c1ccc(/C=C/C(=O)C(C(=O)/C=C/c2ccc(N(C)C)cc2)C(=O)Nc2ccccc2)cc1` [Compound 8, 1,7-Bis(4-dimethylaminophenyl)-4-N-phenylaminocarbonylhepta-1E,6E-dien-3,5-dione]: on MMP-13 (Collagenase-3), the inhibition at 100 µM was 53% and the “MMP-13 Ratio” value worked out at 11.3.
`COc1cc(/C=C/C(=O)CC(=O)/C=C/c2ccc(O)c(OC)c2)ccc1O` [Curcumin, curcumin]: in the series with TNF-α (10 uM), the inhibition at 10 µM worked out at 0%. In addition, the inhibition at 20 µM in the series with TNF-α (20 uM) is 0%. Besides, in the series with TNF-α (50 uM), the inhibition at 50 µM is 80%. Moreover, the entries for the “Cytotoxicity Monocytes @ 5 h incubation” value in the series on human monocytes (10 uM), in the series on human monocytes (20 uM) and with human monocytes (50 uM) were 10 uM - 0%, 20 uM - 20% and 50 uM - 50%, respectively. The “Cytotoxicity Monocytes @ 18 h incubation” value was 10 uM - 0% in the series on human monocytes (10 uM), 20 uM - 20% in the series on human monocytes (20 uM) and 50 uM - 77% with human monocytes (50 uM). The “Cytotoxicity in monocyte culture” value in the series on human monocytes (50 and 100 μM, with some precipitation) is listed as “significant cytotoxicity”. Further, the inhibition at 100 µM in series [1] turned out to be 58%; at MMP-2, 54%. Moreover, the Solubility entry in series [2] is “insoluble”.
